The values below come from patent publication US9365583B2, “Substituted pyrazoles and uses thereof” (Genentech, Inc., priority 2013, dated 2016).

pKi: −log10 of the molar value.

This test addresses T1, N-terminally GST-tagged DLK (catalytic domain amino acid 1-520) (Homo sapiens, UniProt Q12852).
T1 construct: N-terminally GST-tagged DLK (catalytic domain amino acid 1-520); purchased Carna Bioscience
T1 sequence (Q12852 1-520): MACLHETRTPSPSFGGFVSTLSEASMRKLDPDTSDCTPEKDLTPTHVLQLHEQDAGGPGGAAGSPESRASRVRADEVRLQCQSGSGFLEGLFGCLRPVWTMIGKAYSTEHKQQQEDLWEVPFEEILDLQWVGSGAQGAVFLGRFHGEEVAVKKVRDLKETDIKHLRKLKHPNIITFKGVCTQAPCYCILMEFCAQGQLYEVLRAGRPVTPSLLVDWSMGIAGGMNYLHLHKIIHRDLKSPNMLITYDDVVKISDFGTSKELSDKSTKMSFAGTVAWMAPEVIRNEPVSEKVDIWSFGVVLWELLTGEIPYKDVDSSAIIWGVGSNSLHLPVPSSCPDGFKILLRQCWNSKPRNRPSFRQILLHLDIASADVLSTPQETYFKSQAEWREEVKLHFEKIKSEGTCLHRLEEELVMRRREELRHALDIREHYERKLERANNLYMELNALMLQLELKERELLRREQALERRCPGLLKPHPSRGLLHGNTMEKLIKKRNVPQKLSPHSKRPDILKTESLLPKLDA
The test is described as follows: DLK TR-FRET inhibition assay. Type of test: biochemical. Particulars: 5 nM GST-DLK, 40 nM HIS-MKK4 K131M substrate, 30 μM ATP, 60 minutes at ambient temperature. The method, boiled down:
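Phosphorylated MKK4 was quantified by TR-FRET (Eu-labelled anti-phospho-MKK4, D2 anti-HIS; 3 h, 665 and 615 nm emission) after EDTA quench. Reactions held 5 nM GST-tagged DLK catalytic domain (1-520), 40 nM HIS-MKK4 K131M substrate, 30 μM ATP and compound (3-fold series from 20 uM), 60 min, room temperature, pH 7.5.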
(In general: In TR-FRET formats the signal depends on donor and acceptor labels being close together.)
For `CC(C)n1nc(-c2cnc(N)c(C(F)(F)F)c2)cc1[C@H]1[C@@H]2C[C@H](N3CCN4CCCC4C3)C[C@@H]21` (stereo partly drawn) [compound 262, 5-(5-((1R,3r,5S,6r)-3-(hexa-hydropyrrolo[1,2-a]pyrazin-2(1H)-yl)bicyclo[3.1.0]hexan-6-yl)-1-isopropyl-1H-pyrazol-3-yl)-3-(trifluoromethyl)pyridin-2-amine], the negative-log Ki (pKi) (commonly the Ki on a negative log10 scale, so that one unit is a factor of ten) is more than 10.00.
Compound `CC(C)n1nc(-c2cnc(N)c(C(F)(F)F)c2)cc1[C@H]1[C@@H]2C[C@H](N3CCOC[C@H]3C)C[C@@H]21` [compound 45, 5-(1-isopropyl-5-((1R,3r,5S,6R)-3-((R)-3-methylmorpholino)bicyclo[3.1.0]hexan-6-yl)-1H-pyrazol-3-yl)-3-(trifluoromethyl) pyridin-2-amine] had a pKi of 8.48.
`CCN1CCN([C@H]2C[C@@H]3[C@H](C2)[C@H]3c2cc(-c3cnc(N)c(C(F)(F)F)c3)nn2C(C)C)CC1` [compound 16, 5-(5-((1R,3r,5S,6r)-3-(4-ethylpiperazin-1-yl)bicyclo[3.1.0]hexan-6-yl)-1-isopropyl-1H-pyrazol-3-yl)-3-(trifluoromethyl)pyridin-2-amine] showed a pKi of 8.04.
For `CC(C)n1nc(-c2cnc(N)c(C(F)(F)F)c2)cc1[C@H]1[C@@H]2C[C@H](N3CCN(C4COC4)CC3)C[C@@H]21` [compound 116, 5-(1-isopropyl-5-((1R,3r,5S,6r)-3-(4-(oxetan-3-yl)piperazin-1-yl)bicyclo[3.1.0]hexan-6-yl)-1H-pyrazol-3-yl)-3-(trifluoromethyl) pyridin-2-amine] the value was 8.11; for `CC(C)n1nc(-c2cnc(N)c(C(=O)N3CCCC3)c2)cc1[C@H]1[C@@H]2C[C@H](N3CC(F)C3)C[C@@H]21` [compound 107, (2-amino-5-(5-((1R,3r,5S,6r)-3-(3-fluoroazetidin-1-yl)bicyclo [3.1.0]hexan-6-yl)-1-isopropyl-1H-pyrazol-3-yl)pyridin-3-yl) (pyrrolidin-1-yl)methanone], less than 6.49.
For `CC(C)n1nc(-c2cnc(N)c(OC(F)(F)F)c2)cc1[C@H]1[C@@H]2C[C@H](N3CCOCC3)C[C@@H]21` [compound 69, 5-(1-isopropyl-5-((1R,3r,5S,6r)-3-morpholinobicyclo[3.1.0]hexan-6-yl)-1H-pyrazol-3-yl)-3-(trifluoromethoxy)pyridin-2-amine] the value was 8.53; for `COCC1(F)C[C@@H]2[C@H](C1)[C@H]2c1cc(-c2cnc(N)c(C(F)(F)F)c2)nn1C(C)C` (stereo partly drawn) [compound 166, 5-(5-((1R,5S,6r)-3-fluoro-3-(methoxymethyl)bicyclo[3.1.0]hexan-6-yl)-1-isopropyl-1H-pyrazol-3-yl)-3-(trifluoromethyl)pyridin-2-amine], 8.17.
For `CC(C)n1nc(-c2cnc(N)c(C(F)(F)F)c2)cc1[C@@H]1[C@H]2CC3C(OCCN3C)[C@H]21` (mixture of isomers) [compound 156, (±)-5-(1-isopropyl-5-(4-methyl-octahydro-2H-cyclopropa[4,5]cyclopenta[1,2-b][1,4]oxazin-6-yl)-1H-pyrazol-3-yl)-3-(trifluoromethyl)pyridin-2-amine] the value was 7.87; for `CC(C)n1nc(-c2cnc(N)c(OC(F)F)c2)cc1[C@H]1[C@@H]2C[C@H]3CN(C)C[C@H]3[C@@H]21` (racemic) [compound 163, (±)-3-(difluoromethoxy)-5-(1-isopropyl-5-((3aS,3bR,4S,4aR,5aR)-2-methyloctahydro-1H-cyclopropa[3,4]cyclopenta[1,2-c]pyrrol-4-yl)-1H-pyrazol-3-yl) pyridin-2-amine], 8.55; for `CC(C)n1nc(-c2cnc(N)c(OC(F)F)c2)cc1[C@@H]1[C@@H]2C[C@@H](O)C[C@@H]21` [compound 123, (1R,3s,5S,6s)-6-(3-(6-amino-5-(difluoromethoxy)pyridin-3-yl)-1-isopropyl-1H-pyrazol-5-yl) bicyclo[3.1.0]hexan-3-ol], less than 6.49.
Compound `CC(C)n1nc(-c2cnc(N)c(C(F)(F)F)c2)cc1[C@H]1[C@@H]2C[C@H](N3CC(C#N)C3)C[C@@H]21` [compound 70, 1-((1R,3r,5S,6r)-6-(3-(6-amino-5-(trifIuoromethyl)pyridin-3-yl)-1-isopropyl-1H-pyrazol-5-yl)bicyclo[3.1.0]hexan-3-yl)azetidine-3-carbonitrile] showed a negative-log Ki (pKi) of 8.54.
For `COC1CCN([C@H]2C[C@@H]3[C@H](C2)[C@H]3c2cc(-c3cnc(N)c(OC(F)F)c3)nn2C(C)C)C1` (stereo partly drawn) [compound 73, 3-(difluoromethoxy)-5-(1-isopropyl-5-((lR,3r,5S,6r)-3-(3-methoxy-pyrrolidin-1-yl)bicyclo[3.1.0]hexan-6-yl)-1H-pyrazol-3-yl) pyridin-2-amine] the value was 8.74; for `COCCN(C)[C@@H]1C[C@@H]2[C@H](C1)[C@H]2c1cc(-c2cnc(N)c(C(F)(F)F)c2)nn1C(C)C` [compound 291, 5-(1-isopropyl-5-((1R,3s,5S,6r)-3-((2-methoxyethyl)(methyl)amino)bicyclo[3.1.0]hexan-6-yl)-1H-pyrazol-3-yl)-3-(trifluoromethyl) pyridin-2-amine], 8.33.
For `CC(C)n1nc(-c2cnc(N)c(C(F)(F)F)c2)cc1[C@H]1[C@@H]2C[C@H](N3CCCOCC3)C[C@@H]21` [compound 100, 5-(5-((1R,3r,5S,6r)-3-(1,4-oxazepan-4-yl)bicyclo[3.1.0]hexan-6-yl)-1-isopropyl-1H-pyrazol-3-yl)-3-(trifluoromethyl)pyridin-2-amine] the value was 8.99; for `Nc1ncc(-c2cc([C@H]3[C@@H]4C[C@H](N5CCOCC5)C[C@@H]43)nn2CC2CC2)cc1OC(F)F` [compound 267, 5-(1-(cyclopropylmethyl)-3-((1R,3r,5S,6r)-3-morpholinobicyclo [3.1.0]hexan-6-yl)-1H-pyrazol-5-yl)-3-(difluoromethoxy) pyridin-2-amine], 6.66.
For `CC(C)n1nc(-c2cnc(N)c(OC(F)F)c2)cc1[C@H]1[C@@H]2C[C@@H](N3CCN(C)CC3)C[C@@H]21` [compound 199, 3-(difluoromethoxy)-5-(1-isopropyl-5-((1R,3s,5S,6r)-3-(4-methyl-piperazin-1-yl)bicyclo[3.1.0]hexan-6-yl)-1H-pyrazol-3-yl) pyridin-2-amine] the value was 8.74.
Turning to `Nc1ncc(-c2cc([C@H]3[C@@H]4C[C@@H](N5CCOCC5)C[C@@H]43)n(CC(F)F)n2)cc1OC(F)(F)F` [compound 165, 5-(1-(2,2-difluoroethyl)-5-((1R,3s,5S,6r)-3-morpholinobicyclo [3.1.0]hexan-6-yl)-1H-pyrazol-3-yl)-3-(trifluoromethoxy) pyridin-2-amine], the pKi is 8.80.
For `CC(C)n1nc(-c2cnc(N)c(OC(F)F)c2)cc1[C@H]1[C@@H]2C[C@H](OCC(C)(C)O)C[C@@H]21` [compound 168, 1-(((1R,3r,5S,6r)-6-(3-(6-ammo-5-(difluoromethoxy)pyridin-3-yl)-1-isopropyl-1H-pyrazol-5-yl)bicyclo[3.1.0]hexan-3-yl)oxy)-2-methylpropan-2-ol] the value was 8.57; for `Nc1ncc(-c2cc([C@H]3[C@@H]4C[C@@H](N5CCOCC5)C[C@@H]43)n(C3CCC3)n2)cc1OC(F)F` [compound 131, 5-(1-cyclobutyl-5-((1R,3s,5S,6r)-3-morpholinobicyclo[3.1.0]hexan-6-yl)-1H-pyrazol-3-yl)-3-(difluoromethoxy)pyridin-2-amine], 8.46; for `CC(C)n1nc(-c2cnc(N)c(OC(F)F)c2)cc1[C@H]1[C@@H]2C[C@H](N3C[C@@H](F)[C@@H](F)C3)C[C@@H]21` [compound 118, 3-(difluoromethoxy)-5-(5-((1R,3r,5S,6R)-3-((3S,4R)-3,4-difluoro-pyrrolidin-1-yl)bicyclo[3.1.0]hexan-6-yl)-1-isopropyl-1H-pyrazol-3-yl)pyridin-2-amine], 8.43.
For `CO[C@@H]1CCN([C@@H]2C[C@@H]3[C@H](C2)[C@H]3c2cc(-c3cnc(N)c(OC(F)(F)F)c3)nn2C(C)C)C1` [compound 193, 5-(1-isopropyl-5-((1R,3s,5S,6R)-3-((R)-3-methoxypyrrolidin-1-yl)bicyclo[3.1.0]hexan-6-yl)-1H-pyrazol-3-yl)-3-(trifluoromethoxy) pyridin-2-amine] the value was 8.85; for `CO[C@H]1CCN([C@H]2C[C@@H]3[C@H](C2)[C@H]3c2cc(-c3cnc(N)c(OC(F)(F)F)c3)nn2C(C)C)C1` [compound 23, 5-(1-isopropyl-5-((1R,3r,5S,6S)-3-((S)-3-methoxypyrrolidin-1-yl)bicyclo[3.1.0]hexan-6-yl)-1H-pyrazol-3-yl)-3-(trifluoro-methoxy)pyridin-2-amine], 9.01; for `CO[C@H]1CCN([C@@H]2C[C@@H]3[C@H](C2)[C@H]3c2cc(-c3cnc(N)c(OC(F)F)c3)nn2C(C)C)C1` [compound 215, 3-(difluoromethoxy)-5-(1-isopropyl-5-((1R,3s,5S,6S)-3-((S)-3-methoxypyrrolidin-1-yl)bicyclo [3.1.0]hexan-6-yl)-1H-pyrazol-3-yl)pyridin-2-amine], 8.85.
